Results as given in PMC2935307 (Biochemical pharmacology, 2010).
Where “and” joins values, the source holds several entries; their conditions need not be identical. Equal values may be shown once. Read-outs that look alike come from different tables or passages of the source.

Experiments:
[1] = target: high affinity epibatidine binding sites (Mus musculus, UniProt O70174+Q9ERK7); experiment: biochemical
[2] = target: T1, α4β2*-nAChR (Mus musculus, UniProt O70174+Q9ERK7); format: biochemical
[3] = target: T1, α4β2*-nAChR; experiment: biochemical
[4] = target: T1, α4β2*-nAChR; details: cited from earlier work
[5] = target: T1, α4β2*-nAChR; details: total efflux normalized to baseline
[6] = target: epibatidine binding sites (Mus musculus, UniProt O70174+Q9ERK7)
[7] = system: α4β2-nAChR; details: read-out: IC50 for desensitization by nicotine; transfected cells; cited from earlier work
[8] = system: α4β2*-nAChR binding sites; details: mice treated chronically with nicotine; cited from earlier work
[9] = IC50 for desensitization of the LS component
[10] = HS EC50 for 86Rb+ efflux from Marks et al., 1999, errors by Taylor's expansion
[11] = LS EC50 for 86Rb+ efflux from Marks et al., 1999, errors by Taylor's expansion
[12] = cortex, nicotine infusion 0.5 mg/kg/hr
[13] = cortex, nicotine infusion 4.0 mg/kg/hr
[14] = thalamus, nicotine infusion 0.5 mg/kg/hr
[15] = thalamus, nicotine infusion 4.0 mg/kg/hr

T1 sequence (Q9ERK7 26-501): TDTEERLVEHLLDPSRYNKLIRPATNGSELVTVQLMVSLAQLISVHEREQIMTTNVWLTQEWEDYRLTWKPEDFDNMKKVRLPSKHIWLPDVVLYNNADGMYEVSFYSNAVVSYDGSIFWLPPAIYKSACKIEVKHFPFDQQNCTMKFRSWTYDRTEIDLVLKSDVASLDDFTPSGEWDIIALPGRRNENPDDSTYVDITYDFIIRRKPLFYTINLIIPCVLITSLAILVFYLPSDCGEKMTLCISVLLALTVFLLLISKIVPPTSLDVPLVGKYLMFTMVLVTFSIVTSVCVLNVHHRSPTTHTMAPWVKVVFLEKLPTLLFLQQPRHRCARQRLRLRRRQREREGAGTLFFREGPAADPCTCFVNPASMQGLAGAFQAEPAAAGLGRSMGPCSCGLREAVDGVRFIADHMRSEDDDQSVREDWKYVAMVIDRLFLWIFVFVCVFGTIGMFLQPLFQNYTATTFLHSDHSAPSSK
T1 sequence (O70174 31-629): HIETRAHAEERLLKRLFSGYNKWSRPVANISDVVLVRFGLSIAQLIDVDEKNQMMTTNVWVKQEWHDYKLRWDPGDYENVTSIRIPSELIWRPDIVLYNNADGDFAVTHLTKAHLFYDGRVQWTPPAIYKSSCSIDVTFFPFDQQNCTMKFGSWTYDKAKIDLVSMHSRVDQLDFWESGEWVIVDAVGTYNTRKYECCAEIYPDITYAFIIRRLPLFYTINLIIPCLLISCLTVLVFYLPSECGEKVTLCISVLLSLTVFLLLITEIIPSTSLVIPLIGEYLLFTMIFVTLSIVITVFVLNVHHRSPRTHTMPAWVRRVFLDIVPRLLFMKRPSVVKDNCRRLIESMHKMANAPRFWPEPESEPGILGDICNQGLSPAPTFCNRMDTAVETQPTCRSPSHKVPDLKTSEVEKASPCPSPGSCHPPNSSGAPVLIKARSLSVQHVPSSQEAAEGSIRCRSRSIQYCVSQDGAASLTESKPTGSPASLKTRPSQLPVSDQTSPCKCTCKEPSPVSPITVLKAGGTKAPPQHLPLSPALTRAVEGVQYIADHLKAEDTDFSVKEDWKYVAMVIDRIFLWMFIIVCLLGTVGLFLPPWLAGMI
Sequence of epibatidine binding sites (Q9ERK7 26-501): as the sequence (Q9ERK7 26-501) above
Sequence of epibatidine binding sites (O70174 31-629): as the sequence (O70174 31-629) above
Sequence of high affinity epibatidine binding sites (Q9ERK7 26-501): as the sequence (Q9ERK7 26-501) above
Sequence of high affinity epibatidine binding sites (O70174 31-629): as the sequence (O70174 31-629) above

In the case of `Clc1ccc(C2CC3CCC2N3)cn1` (racemic) [epibatidine, (±)-epibatidine], the Ki [1] is reported as 0.024 ± 0.008 nM, the “% des” value [2] is reported as 69.9 ± 6.1% and 64.5 ± 11.7% and 96.7 ± 8.9% and 93.8 ± 7.4% and the “Ratio KI High Affinity Binding/Desensitization IC50” value [3] is reported as 0.065±0.022. The “Ratio: HS EC50/Desensitization IC50” value [3] was 154±44, the “Ratio: LS EC50/Desensitization IC50” value [3] was 6000 and 6000±870 and the IC50 ([3]; IC50 Desensitization) was 0.37 ± 0.02 nM. The IC50 ([3]; IC50 for desensitization of the HS component) was 0.33 ± 0.09 nM, the IC50 [3, 9] was 0.38 ± 0.09 nM and the “Difference in EC50 values for stimulation of HS and LS responses” value (from here on “Difference in EC50 values”) ([4]; mouse brain synaptosomes) was 39 fold.

With `O=c1cccc2n1C[C@@H]1CNC[C@H]2C1` [cytisine] the Ki [1] was 0.32 ± 0.02 nM, the “Ratio KI High Affinity Binding/Desensitization IC50” value [3] was 0.119±0.011 and the “Ratio: HS EC50/Desensitization IC50” value [3, 10] was 4.8. For the same molecule, the IC50 ([3]; IC50 Desensitization) was 2.7 ± 0.2 nM, the IC50 [3, 9] was 5.4 ± 1.4 nM and the “Ratio: LS EC50/Desensitization IC50” value [3, 11] was 56000±23000. For the same molecule, the “Difference in EC50 values” value [4] was 11,500 fold.

For `CNC(=O)OCC[N+](C)(C)C.[Cl-]` [methylcarbachol, methycarbachol chloride], the Ki ([1]; read-out: Ki, high affinity epibatidine binding) was 7.9 ± 1.7 nM, the “% des” value [2] was 50.9 ± 8.8% and 56.0 ± 8.1% and 94.3 ± 7.3% and 88.7 ± 6.4% and the “Ratio: HS EC50/Desensitization IC50” value [3, 10] was 380. The “Ratio: LS EC50/Desensitization IC50” value [3, 11] was 56,000, the “Ratio KI High Affinity Binding/Desensitization IC50” value ([3]; errors by Taylor's expansion) was 0.156±0.042 and the “Difference in EC50 values” value ([4]; mouse brain synaptosomes) was 38 fold.

With `CN1CCC[C@H]1c1cccnc1` [nicotine] the “High Sensitivity 86Rb+ Efflux (maximal)” value [5, 12] was 2.06±0.19, the “Low Sensitivity 86Rb+ Efflux (maximal)” value [5, 12] was 6.80±0.50 and the “High Sensitivity 86Rb+ Efflux (maximal)” value [5, 13] was 1.88±0.11. The “Low Sensitivity 86Rb+ Efflux (maximal)” value [5, 13] was 5.63±0.80, the “High Sensitivity 86Rb+ Efflux (maximal)” value [5, 14] was 10.19±0.99 and the “Low Sensitivity 86Rb+ Efflux (maximal)” value [5, 14] was 13.84±2.48. The “High Sensitivity 86Rb+ Efflux (maximal)” value [5, 15] was 6.76±1.19, the “Low Sensitivity 86Rb+ Efflux (maximal)” value [5, 15] was 12.52±1.96 and the “[125I]-Epibatidine Bound” value [6, 12] was 127.9±1.1 fmol/mg protein. For the same molecule, the “[125I]-Epibatidine Bound” value [6, 13] was 139.0±1.2 fmol/mg protein, the “[125I]-Epibatidine Bound” value [6, 14] was 240.7±2.5 fmol/mg protein and the “[125I]-Epibatidine Bound” value [6, 15] was 256.8±2.9 fmol/mg protein. For the same molecule, the “Difference in EC50 values” value [4] was 94 fold, the IC50 [7] was […] and the “average dose for half-maximal upregulation of α4β2*-nAChR binding sites” value [8] was 0.44 mg/kg/h.
